The numbers were not newly measured in US20070014834A1, “Apparatus and methods of improved delivery of orally-administered therapeutic substances” (priority 2005, published 2007), which cites them from elsewhere.

One series relates to capsaicin-induced cough. As to conditions: for concentration of capsaicin required to produce a cough, compared with placebo: 10 healthy volunteers.
The test system of series [1] is citric acid-induced cough. As to conditions: guinea-pigs in vivo.

On to `COc1ccc2c3c1O[C@H]1[C@@H](O)C=C[C@H]4[C@@H](C2)N(C)CC[C@@]341` [codeine], for which the “concentration of capsaicin required to produce a cough, compared with placebo” value with capsaicin-induced cough was “only marginally higher”.
In the case of `Cn1cnc2c1c(=O)[nH]c(=O)n2C` [theobromine], the “inhibition of capsaicin-induced sensory nerve depolarization” value with guinea-pig vagus nerve and with human vagus nerve was “directly inhibits” throughout. In series [1], the “inhibition of citric acid-induced cough” value is “effectively inhibits”. In addition, the “concentration of capsaicin required to produce a cough, compared with placebo” value in the series with capsaicin-induced cough is reported as “around one third higher”. For the same compound, the “effectiveness in stopping persistent coughs compared with codeine” value with capsaicin-induced cough (compared with codeine) is “nearly a third more effective”. The “suppression of capsaicin-induced cough” value in the series on capsaicin-induced cough (randomized, double-blind, placebo-controlled study in man) is recorded as “suppresses”.
